US8173626B2, “Methods, dosing regimens and medications using anti-progestational agents for the treatment of disorders” (Danco Laboratories LLC, priority 2006, dated 2012)

Columns and labels:
uterine leiomyomata [1] = assay: Clinical study of 2.5 mg mifepristone for the treatment of uterine leiomyomata (Example 1); format: in vivo, human; conditions: 2.5 mg daily, three months
Protocol: The study was conducted at a single site in Rochester, N.Y. Subjects: Inclusion criteria for the study included that subjects be (i) female; (ii) 18 years of age to premenopausal; and (iii) willing and able to give informed consent and comply with study requirements; and have (i) at least moderate symptoms of menorrhagia and/or pelvic pain/pressure; (ii) a total uterine volume greater than or equal to 160 cubic centimeters (cc) by ultrasound measurement; (iii) at least one leiomyomata ≧2.5 cm in size; (iv) a score of equal to or greater than 39 on the Uterine Fibroid Symptom and Quality of Life Scale; (v) declined standard treatment options for symptomatic leiomyomata; and (vi) agreed to use a barrier method (condoms, diaphragms) or other effective non-hormonal method of contraception (abstinence, sterilization) throughout participation in the study. Exclusion criteria for the study included: (i) current or planned pregnancy during the study period; (ii) menopausal, as indicated by follicle-stimulating hormone (FSH) level of the reference laboratory; (iii) currently breast-feeding; (iv) untreated abnormal pap smear; (v) presence of conditions other than leiomyomata contributing to pain and/or bleeding; (vi) hemoglobin […]; (vii) presence of […] masses or tenderness requiring further evaluation or surgery; (viii) grade III or IV hydronephrosis by ultrasound; (ix) severe, active mental disorder; […] (xi) current or recent (within the last three months) use of oral systemic corticosteroids, hormones (including estrogens, progestins, oral contraceptives), danazol, anticoagulants, or herbal or botanical supplements with possible hormonal effects; (xii) use within the past six months of GnRH analogs or Depo-Provera®; and (xiii) current or planned use during the study of any of the following medications or products: ketoconazole, itraconazole, erythromycin, grapefruit juice, rifampin, St. John's Wort, phenytoin, phenobarbital or carbamazepine Primary recruitment of subjects occurred through direct advertising and physician referrals. Women who were successfully prescreened were contacted by telephone and invited to an screening session/orientation. Prospective subjects were provided with a verbal and written description of the study and requirements for participation. Written informed consent was obtained from each participant at the screening session/orientation, and medical record releases were obtained and reviewed by the project gynecologist. Participants who gave consent were assigned a study ID number and asked to proceed further with the screening session. […] During the screening session the following information was collected: Physical Examination: Height, weight, blood pressure, pulse readings, examination of the breasts, heart, lungs, abdomen, and complete gynecologic examination including bi-manual at screening session/orientation (baseline). Height, weight, blood pressure, pulse readings and examination of the breasts. Blood samples: Negative pregnancy test and normal liver function testing (ALT, AST), hemoglobin and FSH levels. Ultrasonography: All subjects underwent abdominal and vaginal ultrasonography and uterine artery and leiomyomata blood flow assessment. Specifically, uterine leiomyomata size was assessed by transabdominal and/or transvaginal sonography by a single, certified and experienced ultrasonographer. Combined abdominal and vaginal ultrasonography was the standard for assessing leiomyomata size. […]

uterine leiomyomata [2] = conditions: cited from earlier work
[3] = target: glucocorticosteroid receptor (GR) (Homo sapiens, UniProt P04150); conditions: cited from earlier work
Chain of glucocorticosteroid receptor (GR) (P04150 whole entry): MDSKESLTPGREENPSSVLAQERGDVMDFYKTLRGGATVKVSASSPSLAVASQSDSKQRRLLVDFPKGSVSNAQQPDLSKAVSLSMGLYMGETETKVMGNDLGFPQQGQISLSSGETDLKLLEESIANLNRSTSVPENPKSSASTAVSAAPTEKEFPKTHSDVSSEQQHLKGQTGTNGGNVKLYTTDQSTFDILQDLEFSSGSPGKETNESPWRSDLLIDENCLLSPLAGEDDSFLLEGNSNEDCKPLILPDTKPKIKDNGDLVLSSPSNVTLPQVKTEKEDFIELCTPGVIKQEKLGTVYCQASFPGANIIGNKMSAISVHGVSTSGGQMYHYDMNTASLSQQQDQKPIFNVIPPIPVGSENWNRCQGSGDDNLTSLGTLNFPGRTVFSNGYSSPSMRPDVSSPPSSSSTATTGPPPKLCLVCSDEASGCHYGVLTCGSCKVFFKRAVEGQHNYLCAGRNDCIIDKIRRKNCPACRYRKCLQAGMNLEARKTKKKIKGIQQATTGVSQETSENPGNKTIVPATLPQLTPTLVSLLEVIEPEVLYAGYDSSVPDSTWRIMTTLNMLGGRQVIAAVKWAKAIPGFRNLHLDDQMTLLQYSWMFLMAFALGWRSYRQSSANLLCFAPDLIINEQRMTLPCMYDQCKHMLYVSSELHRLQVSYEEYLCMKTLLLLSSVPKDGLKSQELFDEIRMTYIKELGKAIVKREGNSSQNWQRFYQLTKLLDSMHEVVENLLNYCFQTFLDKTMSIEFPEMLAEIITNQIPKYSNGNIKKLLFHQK

uterine leiomyomata [4] = assay: Randomized, double-blinded, placebo-controlled study of mifepristone 5 mg daily for symptomatic uterine leiomyomata (Example 11); format: in vivo, human
Description: The Study and Results are described in […] et al., Obstetrics & Gynecology, 108(6) (2006), hereby incorporated by reference in its entirety. […] Women were excluded if they were pregnant or intended to become pregnant during the next 6 months or had major medical morbidity or severe anemia, active mental illness, elevated liver enzymes, or substance abuse. Participants agreed to use barrier contraception and not to use hormonal or surgical treatments for leiomyomata during the course of the trial. Analgesic use was permitted. […] Secondary measures included global health status (Medical Outcomes 36-item Short Form [SF-36] survey) and global pain (McGill Pain Questionnaire). Each questionnaire was administered at baseline, 1 month, 3 months, and 6 months, except the McGill Pain Questionnaire, which was assessed monthly. Bleeding was assessed by using daily menstrual logs and pictorial bleeding charts. A monthly blood loss index was calculated from menstrual history by assigning values […] to each day of spotting, indicating light, moderate, and heavy flow, respectively, and then summing the results. Monthly assessments of the presence and intensity of likely leiomyoma symptoms (including pelvic pain, pelvic pressure, bladder pressure, urinary frequency, low back pain, rectal pain, and pain with intercourse) and drug adverse effects (including hot flushes, headache, nausea, vomiting, mood swings, diarrhea, decreased libido, weakness, fatigue, and nervousness) were performed with a standardized instrument consisting of 5-point Likert scale items. […] The uterus was measured in three planes and a total volume calculated. The five largest leiomyomata were identified, a volume calculated for each of the leiomyomata, and the results summed. Baseline uterine volume was subtracted from each subsequently measured uterine volume, and volume changes were analyzed. The final analysis was powered to detect a 25-point difference in mean Uterine Fibroid Symptom Quality of Life scores. Differences in Uterine Fibroid Symptom Quality of Life scores, ultrasound measures, bleeding, pain, and other longitudinal measures were assessed by using individual growth curve models. […] Approximate t tests were used to test hypotheses of between-group and within-group differences in outcomes.

[5] = test system: endometrial receptors and breakthrough bleeding; conditions: women on Norplant, mifepristone orally; Cheng et al.; cited from earlier work
[6] = test system: breakthrough uterine bleeding in new starters of DMPA; assay: Mifepristone for prevention of breakthrough bleeding in new starters of DMPA (Example 9); format: in vivo, human; conditions: 50 mg capsule every 14 days with DMPA

## CC#C[C@]1(O)CC[C@H]2[C@@H]3CCC4=CC(=O)CCC4=C3[C@@H](c3ccc(N(C)C)cc3)C[C@@]21C [mifepristone, 17-hydroxy-11-(4-dimethylaminophenyl)-17-(prop-1-ynyl)estra-4,9-dien-3-one]
Uterine leiomyomata [1]
  amenorrhea: all subjects became amenorrheic
  mean decrease in leiomyomata volume: 26%
  mean decrease in uterine volume: 19%
Uterine leiomyomata [1]; baseline 187
  mean leiomyomata volume (aggregated) after treatment: 139
Uterine leiomyomata [1]; baseline 795 cc
  mean uterine volume after treatment: 653 cc
Uterine leiomyomata [2]; 5 mg administered for 6 months, Eisinger et al.
  effectiveness: confirmed the effectiveness
Uterine leiomyomata [2]; Eisinger et al. 2003
  uterine leiomyomata size: reduce uterine leiomyomata size
Uterine leiomyomata [2]; Kettel et al., Murphy et al.
  uterine shrinkage and rates of amenorrhea compared with GnRH agonists: equivalent amount of uterine shrinkage and rates of amenorrhea to GnRH agonists
Uterine leiomyomata [2]; doses such as 10 mg
  side effects of the lower described doses: increased hot flashes
Uterine leiomyomata [2]; doses such as 50 mg
  side effects of the highest described doses: can increase the prevalence and severity of hot flashes, can cause an elevation in hepatic enzymes
[3]
  affinity for the glucocorticosteroid receptor (GR): high affinity
Uterine leiomyomata [4]; 5 mg daily for 26 weeks, first weeks of treatment
  period in which most of the improvement in symptoms and quality of life occurred: 8-12 weeks
Uterine leiomyomata [4]; 5 mg daily, 6 months
  SF-36 subscales: improvements in energy and fatigue, health status change, and pain
  endometrial hyperplasia or other significant endometrial pathology: No endometrial hyperplasia or other significant endometrial pathology was observed
  liver function: None of the participants showed abnormal liver function
  reduction in leiomyoma size vs placebo: statistically significant differences in reduction in leiomyoma size
Uterine leiomyomata [4]; 5 mg daily, 6 months, P<0.001 overall
  leiomyoma-specific quality of life and aspects (concern, activities, energy and mood, control, self-consciousness, sexual functioning) vs placebo: Significant improvements
Uterine leiomyomata [4]; 5 mg daily, 6 months, P=0.02, placebo increased 73 mL
  average decrease of uterine volume: 200 mL
Uterine leiomyomata [4]; 5 mg daily, 6 months, difference to placebo not statistically significant
  pain, McGill Pain Questionnaire: decreases in pain
Uterine leiomyomata [4]; 5 mg daily, 6 months, from 12.0 g/dL, P<0.001
  mean hemoglobin level after treatment: 13.5 g/dL
Uterine leiomyomata [4]; 5 mg daily, 6 months, incidence and severity not statistically different from placebo
  potential medication adverse effects: uncommon
Uterine leiomyomata [4]; 5 mg daily, 6 months, low dropout rate
  tolerability: well tolerated
Uterine leiomyomata [4]; 5 mg daily, 6 months, not in placebo group
  bleeding: decreased markedly
Uterine leiomyomata [4]; 5 mg daily, 6 months, of a possible 100 points, range 0-86, placebo 16.7
  mean Uterine Fibroid Symptoms Quality of Life increase: 50.1 points
Uterine leiomyomata [4]; 5 mg daily, 6 months, placebo 41%
  mean Uterine Fibroid Symptoms Quality of Life increase, percent: 135%
Uterine leiomyomata [4]; 5 mg daily, 6 months, secondary regression, placebo increased 10%
  average decrease of uterine volume adjusted for individual baseline volume: 47%
Uterine leiomyomata [4]; 5 mg daily, 6 months, treated women vs placebo
  cystic glandular dilatation of the endometria: Higher rates
Uterine leiomyomata [4]; 5 mg daily, 2 of 22, baseline 11 of 22 (50%), control 60%
  women anemic (hemoglobin below 12.0 g/dL) after six months: 9%
Uterine leiomyomata [4]; 5 mg daily, 9 of 22 women, none in placebo group
  women amenorrheic by the sixth month: 41%
Uterine leiomyomata [4]; 5 mg daily, from 67 at baseline, placebo 67 to 50
  symptom severity score at 6 months: 21
Uterine leiomyomata [4]; 5 mg daily, group difference significant only for pain with intercourse (P<0.05)
  monthly reports of symptoms (pelvic pain, pelvic pressure, bladder pressure, urinary frequency, low back pain, rectal pain, pain with intercourse): all showed improvements
[5]
  breakthrough bleeding: decreased breakthrough bleeding
  endometrial estrogen receptor concentration: increased endometrial estrogen receptor concentration
  endometrial progesterone receptor concentration: decreased endometrial progesterone receptor concentration
[6]; 1232 women-days, placebo 30%, p<0.05, results to date
  median percentage days of bleeding: 11%
[6]; to date
  adverse events: no adverse events have occurred
